Test results from paper PMC8025302, “Structural and biophysical characterization of the tandem substrate-binding domains of the ABC importer GlnPQ” (Open Biology, 2021).
Where “and” joins values, the source holds several entries; their conditions need not be identical. Equal entries are not always repeated.

Assays:
[1] = system: tandem SBD1-2 wild-type protein; experiment: Differential scanning calorimetry, thermostability of tandem with ligand; type: binding, Lactococcus lactis; settings: DSC; unliganded 59°C
Procedure: Furthermore, we verified the stability of the proteins using differential scanning calorimetry (DSC) by analysing thermostability and potential differences in folding of wild-type SBD1-2 and linker mutants (figure 6b,c; electronic supplementary material, table S7). In the unliganded state, the melting temperature of both single SBDs was 59°C [41], which is the same for all tandem SBD1-2 mutants. The addition of either asparagine or glutamine increased the protein stability of the tandem resulting in a higher melting temperature of approximately 62°C for SBD1 and greater than or equal to 69°C for SBD2. […] We assign the peak shifts to a specific SBD by comparing the melting temperatures of the tandem SBD1-2 to that of the single SBDs. […] We find that linker deletions of 5 and 8 amino acids increase the stability of the proteins by 2–3°C. Maximal stabilization of SBD2 in SBD1-2 tandems is observed in the presence of glutamine, […] (figure 6c).
To determine the proteins thermal stability, DSC experiments were performed as described previously. Briefly, the purified SBDs were dialysed overnight against the DSC working buffer, i.e. 50 mM KPi (pH 7.0), 150 mM KCl, 1 mM EDTA and 1 mM NaN3. DSC experiments with working buffer solutions containing 4 µM of an SBD-mutant and 5 mM substrate were conducted on a VP-DSC Calorimeter (MicroCal, GE Healthcare, Buckinghamshire). The melting temperature Tm was determined by ORIGIN 8 (Origin Lab Corp, Northampton, MA).

[2] = biological target: SBD1 of GlnPQ (isolated domain); parameters: method as in PMID 23994008; settings: ITC; cited from earlier work
[3] = biological target: SBD1 within the tandem SBD1-2 (Lactococcus lactis, UniProt Q9CES5); experiment: Isothermal titration calorimetry, SBD1 site of tandem SBD1-2; type: binding; settings: SBD1 within tandem SBD1-2; ITC, 25°C, pH 6.0
Chain of SBD1 within the tandem SBD1-2 (Q9CES5 entry or part of it): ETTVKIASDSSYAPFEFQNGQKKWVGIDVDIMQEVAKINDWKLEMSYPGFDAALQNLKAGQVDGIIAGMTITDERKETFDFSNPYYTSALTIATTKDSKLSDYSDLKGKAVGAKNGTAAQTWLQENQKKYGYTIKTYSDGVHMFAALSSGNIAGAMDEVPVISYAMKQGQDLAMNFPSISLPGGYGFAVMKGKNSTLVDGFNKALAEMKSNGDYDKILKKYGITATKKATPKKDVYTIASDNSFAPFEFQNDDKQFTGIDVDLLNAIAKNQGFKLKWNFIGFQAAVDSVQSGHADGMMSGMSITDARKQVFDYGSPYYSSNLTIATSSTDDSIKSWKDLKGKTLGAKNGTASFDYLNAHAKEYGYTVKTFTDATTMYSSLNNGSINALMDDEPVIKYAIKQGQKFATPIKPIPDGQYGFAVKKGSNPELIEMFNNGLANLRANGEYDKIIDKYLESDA
Procedure: (§1) ITC experiments were performed as described previously. Briefly, the purified SBDs were dialysed overnight against 50 mM KPi (pH 6.0), 1 mM EDTA and 1 mM NaN3. Isothermal titration experiments were carried out using an ITC-200 (MicroCal, GE Healthcare, Buckinghamshire, UK). For these experiments, the substrate was prepared in the dialysis buffer to minimize mixing effects. All experiments were carried out at 25°C and a mixing rate of 1000 r.p.m. The concentration of SBD1 and SBD2 and associated tandem mutants varied between 20 and 100 µM during the experiment, depending on the expected KD of the protein under investigation. For titration experiments with asparagine typically the concentration of ligand in the syringe was 8–10× the concentration in the cell. […] The recorded data was approximated by a one- respectively two-site binding model and fitted using the nonlinear curve-fitting tool provided by ORIGIN 8 (Origin Lab Corp., Northhampton, MA) to describe the molar enthalpy change ΔH for protein–ligand complex formation, the stoichiometry n and the corresponding association constant KA. […] The molar entropy change ΔS was calculated from ΔG = ΔH − TΔS. […] For analysing the glutamine binding to SBD1-Δ5-SBD2, which features two binding sites, we first determined the parameters for the single site using the conditions of asparagine binding to SBD1. […]

[4] = biological target: SBD2 within the tandem SBD1-2 (Lactococcus lactis, UniProt Q9CES5); experiment: Isothermal titration calorimetry, SBD2 site of tandem SBD1-2; type: binding; settings: ITC
Chain of SBD2 within the tandem SBD1-2 (Q9CES5 entry or part of it): as above
Procedure: as §1

[5] = biological target: SBD2 of GlnPQ (isolated domain); parameters: method as in PMID 23994008; settings: ITC; cited from earlier work

NC(=O)C[C@H](N)C(=O)O [asparagine]
melting temperature of SBD1 in the tandem after addition of ligand [1]: approximately 62 °C
melting temperature of SBD2 in the tandem after addition of ligand [1]: greater than or equal to 69 °C
Kd [2]: 200 nM
Kd [3]: 400 ± 100 nM

NC(=O)CC[C@H](N)C(=O)O [glutamine]
Kd ([4]; SBD2 within tandem SBD1-2, SBD1 blocked with 1 mM asparagine): 900 nM
Kd ([4]; SBD2 within tandem SBD1-2, no asparagine, 25°C, pH 6.0): 600 ± 200 nM
melting temperature of SBD1 in the tandem after addition of ligand [1]: approximately 62 °C
melting temperature of SBD2 in the tandem after addition of ligand [1]: greater than or equal to 69 °C
Kd [2]: 90000 nM
Kd [5]: ~900 nM
Kd [3]: 180000 nM and ~100000 nM
